The record followed here is patent EP4800016A1, “METTL3 INHIBITOR” (Hangzhou Bangshun Pharmaceutical Co., Ltd., priority 2023, dated 2025).

T1 sequence (Q86U44 whole entry): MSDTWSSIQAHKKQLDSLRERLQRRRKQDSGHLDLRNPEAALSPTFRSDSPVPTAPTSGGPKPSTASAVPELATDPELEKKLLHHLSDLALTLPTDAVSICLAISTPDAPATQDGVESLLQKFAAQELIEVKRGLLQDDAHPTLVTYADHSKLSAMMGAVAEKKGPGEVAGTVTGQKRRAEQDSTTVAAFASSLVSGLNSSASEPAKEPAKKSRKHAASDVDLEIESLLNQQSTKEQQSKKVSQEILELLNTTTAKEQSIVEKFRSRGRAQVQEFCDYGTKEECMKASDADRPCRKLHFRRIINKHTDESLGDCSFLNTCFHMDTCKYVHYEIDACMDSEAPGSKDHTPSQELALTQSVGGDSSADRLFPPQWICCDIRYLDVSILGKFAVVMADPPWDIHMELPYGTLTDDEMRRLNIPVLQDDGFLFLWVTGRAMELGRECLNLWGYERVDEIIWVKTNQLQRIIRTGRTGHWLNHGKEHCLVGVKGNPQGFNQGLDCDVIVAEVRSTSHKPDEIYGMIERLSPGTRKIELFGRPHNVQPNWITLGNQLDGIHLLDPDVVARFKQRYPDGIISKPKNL
T1 sequence (Q9HCE5 whole entry partner): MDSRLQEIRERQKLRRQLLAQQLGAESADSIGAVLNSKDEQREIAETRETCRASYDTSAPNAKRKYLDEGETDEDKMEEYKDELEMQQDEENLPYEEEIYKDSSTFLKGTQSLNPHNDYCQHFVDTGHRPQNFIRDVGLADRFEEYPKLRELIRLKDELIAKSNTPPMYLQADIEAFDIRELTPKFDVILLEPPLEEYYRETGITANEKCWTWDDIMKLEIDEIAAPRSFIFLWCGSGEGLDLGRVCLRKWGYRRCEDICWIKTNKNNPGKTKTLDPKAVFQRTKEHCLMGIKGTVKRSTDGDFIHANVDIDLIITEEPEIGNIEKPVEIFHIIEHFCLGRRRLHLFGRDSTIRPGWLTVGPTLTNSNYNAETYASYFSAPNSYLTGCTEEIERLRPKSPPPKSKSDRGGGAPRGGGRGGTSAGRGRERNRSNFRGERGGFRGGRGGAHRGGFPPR

This assay concerns the target T1, METTL3/14 (Homo sapiens, UniProt Q86U44).
T1 construct: purchased active motif 31570
Description: METTL3/14 methyltransferase activity assay (HTRF). The assay is classed as biochemical. As to conditions: 10 concentrations, 3-fold dilution from 10 µM. The protocol: The final initial concentration of the compound was 10 µM, with 3-fold serial dilution to give a total of 10 concentrations. 100 nL of the compound was transferred to a 384-well plate and centrifuged at 1000 RPM. 2.5 µL of METTL3/14 (active motif, Cat No. 31570) was added to the test wells and incubated at 25°C for 10 min. 2.5 µL of METTL3-Biotin & SAM (GenScript) was added to the test wells andincubated at 25°C for 60 min. 2.5 µL of YTHDF1 (active motif, Cat No. 31608) was added to the test wells and centrifuged at 1000 RPM. 2.5 µL of Streptavidin-Tb (Perkin Elmer Cat No. 61SATLB) & Flag-mede (Perkin Elmer Cat No. 61FG2DLA) was added to the test wells and centrifuged at 1000 RPM. Incubated at 25°C for 60 min. HTRF was measured using a Plate reader. The results of each compound are shown in Table 1, where A+indicates <10nM, A indicates 10-100nM, B indicates 100-1000nM, and C indicates >1000nM.
In the case of `O=C(NCc1cc2[nH]c(CNCC34CC(F)(C3)C4)cc2cc1F)c1cc(=O)n2cc3c(cc2n1)OCO3` [Example 74, N-((5-fluoro-2-((((3-fluorobicyclo[1.1.1]pentan-1-yl)methyl)amino)methyl)-1H-indol-6-yl)methyl)-8-oxo-8H-[1,3]dioxolo[4',5':4,5]pyrido[1,2-a]pyrimidine-6-carboxamide], the IC50 was below 10 nM. As for `O=C(NCc1c(F)cc2cc(CNCC3CCC3)[nH]c2c1F)c1cc(=O)n2cc3c(cc2n1)OCO3` [Example 75, N-((2-(((Cyclobutylmethyl)amino)methyl)-5,7-difluoro-1H-indol-6-yl)methyl)-8-oxo-8H-[1,3]dioxolo[4',5':4,5]pyrido[1,2-a]pyrimidine-6-carboxamide], the figure is 10 to 100 nM. In the case of `O=C(NCc1ccc2cc(CNCc3ccc(F)s3)[nH]c2c1)c1cc(=O)n2cc3c(cc2n1)OCCO3` [Example 76, N-((2-((((5-fluorothiophen-2-yl)methyl)amino)methyl)-1H-indol-6-yl)methyl)-9-oxo-2,3-dihydro-9H-[1,4]dioxino[2',3':4,5]pyrido[1,2-a]pyrimidin-7-carboxamide] it was 10 to 100 nM. In the case of `O=C(NCc1ccc2cc(CNC[C@H]3CCCO3)[nH]c2c1)c1cc(=O)n2cc3c(cc2n1)OCCO3` [Example 78, (R)-9-Oxo-N-((2-((((tetrahydrofuran-2-yl)methyl)amino)methyl)-1H-indol-6-yl)methyl)-2,3-dihydro-9H-[1,4]dioxino[2',3':4,5]pyrido[1,2-a]pyrimidine-7-carboxamide] it was 10 to 100 nM. The compound `O=C(NCc1ccc2cc(CNC[C@@H]3CCO3)[nH]c2c1)c1cc(=O)n2cc3c(cc2n1)OCCO3` [Example 79, (S)-N-((2-(((oxetan-2-ylmethyl)amino)methyl)-1H-indol-6-yl)methyl)-9-oxo-2,3-dihydro-9H-[1,4]dioxolo[2',3':4,5]pyrido[1,2-a]pyrimidine-7-carboxamide] yielded an IC50 of 10 to 100 nM. In the case of `COC1(CNCc2cc3ccc(CNC(=O)c4cc(=O)n5cc6c(cc5n4)OCCO6)cc3[nH]2)CCC1` [Example 80, N-((2-((((1-Methoxycyclobutyl)methyl)amino)methyl)-1H-indol-6-yl)methyl)-9-oxo-2,3-dihydro-9H-[1,4]dioxino[2',3':4,5]pyrido[1,2-a]pyrimidine-7-carboxamide] it was 10 to 100 nM. `O=C(NCc1ccc2cc(CN3CCOC4(CCC4)C3)[nH]c2c1)c1cc(=O)n2cc3c(cc2n1)OCCO3` [Example 81, N-((2-((5-oxa-8-azaspiro[3.5]nonan-8-yl)methyl)-1H-indol-6-yl)methyl)-9-oxo-2,3-dihydro-9H-[1,4]dioxino[2',3':4,5]pyrido[1,2-a]pyrimidine-7-carboxamide] showed an IC50 of 100 to 1000 nM.

As to `O=C(NCc1ccc2cc(CNCc3ccc(F)s3)[nH]c2c1)c1cc(=O)n2cc3c(cc2n1)OCO3` [Example 82, N-((2-((((5-Fluorothiophen-2-yl)methyl)amino)methyl)-1H-indol-6-yl)methyl)-8-oxo-8H-[1,3]dioxolo[2',3':4,5]pyrido[1,2-a]pyrimidine-6-carboxamide], the IC50 lay within 10 to 100 nM. In the case of `COC1(CNCc2cc3ccc(CNC(=O)c4cc(=O)n5cc6c(cc5n4)OCO6)cc3[nH]2)CCC1` [Example 83, N-((2-((((1-Methoxycyclobutyl)methyl)amino)methyl)-1H-indol-6-yl)methyl)-8-oxo-8H-[1,3]dioxolo[2',3':4,5]pyrido[1,2-a]pyrimidine-6-carboxamide] it was below 10 nM.
